The target of data set [1] is T1, MK2 enzyme (Homo sapiens, UniProt P49137).
T1 construct: MK2 enzyme (active enzyme (peptide 46-end (Millipore))); purchased Millipore
In words: MK2 enzyme activity, IMAP fluorescence polarization assay. It counts as biochemical. The essentials:
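Enzyme kept in KR buffer (10 mM Tris-HCl, 10 mM MgCl2, 0.01% Tween-20, 2 mM DTT, pH 7.2) and acting on a fluorescein-labeled peptide substrate; final compound range 10 μM to 0.316 nM. After 60 min at room temperature, FP at 535 nm was read. Signal as percent of the with/without-ATP control difference, and EC50 by curve fit.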
A general note: Polarisation of emitted light reports the rotation of a fluorescent probe.

Data set [2] is described as follows: Solubility determination of MK2 inhibitors (kinetic aqueous solubility, UPLC). It counts as physicochemical. The conditions noted are these: aqueous buffer (system solution from pION inc.), 22 °C, pH 7.4, aqueous buffer, kinetic from dmso stock. The essentials: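 Kinetic shake-flask solubility (mg/L) at pH 7.4, room temperature (21-23° C.), 1% final DMSO from 10 mM DMSO stock, duplicates. Shaken 24 h, filtered (0.45 um), 1-propanol added to filtrate; dissolved compound quantified by UPLC-UV against external DMSO calibration line of the same compound.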

Setting [3] is: Table 1, comparison compound of Formula (XV) without spiro ring, MK2 IMAP assay, read-out: pEC50, Formula (XV) (converted).
Where [4] appears, read: Table 1, comparison compound of Formula (XV) without spiro ring, pH 7.4, read-out: Solubility pH 7.4 (mg/L), Formula (XV).
Setting [5] is: Table 1, compound of Formula (I) with spiro ring, MK2 IMAP assay, read-out: pEC50, Formula (I) (converted).
Where [6] appears, read: Table 1, compound of Formula (I) with spiro ring, pH 7.4, read-out: Solubility pH 7.4 (mg/L), Formula (I).
Setting [7] is: Table 2, compound of Formula (I) with amine-containing spiro ring, MK2 IMAP assay.
The mark [8] stands for this setting: Table 2, compound of Formula (I) with amine-containing spiro ring, pH 7.4, read-out: Solubility pH 7.4 (mg/L), Formula (I).
Setting [9] is: Table 2, comparison compound of Formula (XVI), spiro ring without amine, MK2 IMAP assay, read-out: pEC50, Formula (XVI) (converted).
Setting [10] is: Table 2, comparison compound of Formula (XVI), spiro ring without amine, pH 7.4, read-out: Solubility pH 7.4 (mg/L), Formula (XVI).
Where [11] appears, read: Table 2, compound of Formula (I) with amine-containing spiro ring, MK2 IMAP assay, read-out: pEC50, Formula (I) (converted).
Setting [12] is: MK2 IMAP assay, 1 μM ATP, 30 min pre-incubation, 2 h room temperature, read-out: pEC50 value (converted).
Setting [13] is: pH 7.4, room temperature, about 1% DMSO, 24 h shaking, read-out: solubility.

≈ marks a conversion by molar mass, not a printed value. Where two headings read alike, the source gives them in different places.

T1 sequence (P49137 46-400 limits assumed): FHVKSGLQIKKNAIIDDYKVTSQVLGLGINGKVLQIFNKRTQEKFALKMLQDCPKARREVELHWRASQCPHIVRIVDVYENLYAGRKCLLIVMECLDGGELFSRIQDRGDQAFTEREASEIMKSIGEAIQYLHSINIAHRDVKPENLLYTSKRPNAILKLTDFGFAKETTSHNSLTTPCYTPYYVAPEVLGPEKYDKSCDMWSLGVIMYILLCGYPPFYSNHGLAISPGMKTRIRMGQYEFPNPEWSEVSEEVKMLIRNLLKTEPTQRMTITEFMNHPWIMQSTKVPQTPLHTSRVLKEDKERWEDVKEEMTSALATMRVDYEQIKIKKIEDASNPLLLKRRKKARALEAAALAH

For the compound `O=C1NCCc2[nH]c(-c3ccnc(-c4ccc5c(c4)OCO5)n3)cc21` [16_5 Formula (XV)], in data set [1] (setting [3]), the EC50 is 126 nM. In addition, the solubility at 24 h in data set [2] (setting [4]) was 5 mg/L.

As for `O=C1NCC2(CCNCC2)c2[nH]c(-c3ccnc(-c4cc5ccccc5o4)n3)cc21` [16_6 Formula (I)], the EC50 in data set [1] (setting [5]) was 6.31 nM. Also, the solubility at 24 h in data set [2] (setting [6]) was determined as 84 mg/L.

With `O=C1NCCc2[nH]c(-c3ccnc(-c4cc5ccccc5o4)n3)cc21` [16_6 Formula (XV)], the EC50 in data set [1] (setting [3]) was 50.1 nM. For the same compound, the solubility at 24 h in data set [2] (setting [4]) amounted to 2 mg/L.

Turning to `O=C1NCC2(CCNCC2)c2[nH]c(-c3ccnc(-c4cc5ccccc5o4)c3)cc21` [16_7 Formula (I)], the EC50 in data set [1] (setting [5]) was 3.16 nM. The solubility at 24 h in data set [2] (setting [6]) came out at 66 mg/L.

Consider `O=C1NCCc2[nH]c(-c3ccnc(-c4cc5ccccc5o4)c3)cc21` [16_7 Formula (XV)], for which, in data set [1], the EC50 is 126 nM. Further, the solubility at 24 h in data set [2] (setting [4]) is 2 mg/L.

With `CC(=O)c1ccc(-c2nccc(-c3cc4c([nH]3)C3(CCNCC3)CNC4=O)n2)cc1` [16_8 Formula (I)], in data set [1] (setting [5]), the EC50 is 6.31 nM. Also, in data set [2] (setting [6]), the solubility at 24 h is 35 mg/L.

Regarding `CC(=O)c1ccc(-c2nccc(-c3cc4c([nH]3)CCNC4=O)n2)cc1` [16_8 Formula (XV)], the EC50 in data set [1] (setting [3]) is 126 nM. Further, in data set [2] (setting [4]), the solubility at 24 h came to 3 mg/L.

For the compound `O=C1NCC2(CCNCC2)c2[nH]c(-c3ccnc(-c4ccc5c(c4)OCO5)n3)cc21` [17_1 Formula (I)], in data set [1] (setting [7]), the “pEC50, Formula (I)” value was determined as 8.4. Further, the solubility at 24 h in data set [2] (setting [8]) stood at 37 mg/L.

On to `O=C1NCC2(CCOCC2)c2[nH]c(-c3ccnc(-c4ccc5c(c4)OCO5)n3)cc21` [17_1 Formula (XVI)], for which, in data set [1] (setting [9]), the EC50 was 794 nM. Besides, in data set [2] (setting [10]), the solubility at 24 h is 2 mg/L.

`O=C1NCC2(CCNCC2)c2[nH]c(-c3ccnc(-c4cnc5ccccc5c4)n3)cc21` [17_2 Formula (I)]: the “pEC50, Formula (I)” value in data set [1] (setting [7]) is 8.2. Moreover, the solubility at 24 h in data set [2] (setting [8]) is 23 mg/L.

Turning to `O=C1NCC2(CCOCC2)c2[nH]c(-c3ccnc(-c4cnc5ccccc5c4)n3)cc21` [17_2 Formula (XVI)], the EC50 in data set [1] (setting [9]) was 316 nM. In data set [2] (setting [10]), the solubility at 24 h was 3 mg/L.

Consider `O=C1NCC2(CCNC2)c2[nH]c(-c3ccnc(-c4cnc5ccccc5c4)n3)cc21` (centres unmarked) [17_3 Formula (I)], for which the EC50 in data set [1] (setting [11]) was 2.51 nM. The solubility at 24 h in data set [2] (setting [8]) turned out to be 37 mg/L.

In the case of `O=C1NCC2(CCNC2)c2[nH]c(-c3ccnc(-c4cccc(F)c4)n3)cc21` (centres unmarked) [17_4 Formula (I)], the EC50 in data set [1] (setting [11]) was 12.6 nM. The solubility at 24 h in data set [2] (setting [8]) turned out to be 48 mg/L.

Consider `O=C1NCC2(CCNCC2)c2[nH]c(-c3ccnc(-c4cc5ccccc5o4)n3)cc21` [Example 1—1, 2′(2-(benzofuran-2-yl)pyrimidin-4-yl)-5′,6′-dihydrospiro[piperidine-4,7′-pyrrolo[3,2-c]pyridin]-4′(1′H)-one], for which the EC50 in data set [1] (setting [12]) is 3.16 to 31.6 nM. Further, the solubility at 24 h in data set [2] (setting [13]) lay within 20 to 50 mg/L (≈ 50.1 to 125 µM).

In the case of `O=C1NCC2(CCNCC2)c2[nH]c(-c3ccnc(-c4ccc(Cl)c(Cl)c4)n3)cc21` [Example 1—13, 2′-(2-(3,4-dichlorophenyl)pyrimidin-4-yl)-5′,6′-dihydrospiro[piperidine-4,7′-pyrrolo[3,2-c]pyridin]-4′(1′H)-one], in data set [1] (setting [12]), the EC50 is 3.16 to 31.6 nM. In addition, the solubility at 24 h in data set [2] (setting [13]) was not below 50 mg/L.

Compound `CN1CCC2(CC1)CNC(=O)c1cc(-c3ccnc(-c4cc5ccccc5o4)n3)[nH]c12` [Example 2—1, 2′-(2-(benzofuran-2-yl)pyrimidin-4-yl)-1-methyl-5′,6′-dihydrospiro[piperidine-4,7′-pyrrolo[3,2-c]pyridin]-4′(1′H)-one] came in with an EC50 in data set [1] of 3.16 to 31.6 nM. The solubility at 24 h in data set [2] (setting [13]) lay in the range of 20 to 50 mg/L (≈ 48.4 to 121 µM).

`NCCN1CCC2(CC1)CNC(=O)c1cc(-c3ccnc(-c4cc5ccccc5o4)n3)[nH]c12` [Example 2—3, 1-(2-aminoethyl)-2′-(2-(benzofuran-2-yl)pyrimidin-4-yl)-5′,6′-dihydrospiro[piperidine-4,7′-pyrrolo[3,2-c]pyridin]-4′(1′H)-one]: the EC50 in data set [1] (setting [12]) is 31.6 to 316 nM. Further, the solubility at 24 h in data set [2] (setting [13]) was not below 50 mg/L.

Turning to `CC(=O)NCCN1CCC2(CC1)CNC(=O)c1cc(-c3ccnc(-c4cc5ccccc5o4)n3)[nH]c12` [Example 3—1, N-(2-(2′-(2-(benzofuran-2-yl)pyrimidin-4-yl)-4′-oxo-1′,4′,5′,6′-tetrahydrospiro[piperidine-4,7′-pyrrolo[3,2-c]pyridine]-1-yl)ethyl)acetamide], the EC50 in data set [1] (setting [12]) was 3.16 to 31.6 nM. Moreover, the solubility at 24 h in data set [2] (setting [13]) was not below 50 mg/L.

Regarding `O=C1NCC2(CCNCC2)c2[nH]c(-c3nc(-c4cc5ccccc5o4)ncc3F)cc21` [Example 4—1, 2′-(2-(benzofuran-2-yl)-5-fluoropyrimidin-4-yl)-5′,6′-dihydrospiro[piperidine-4,7′-pyrrolo[3,2-c]pyridin]-4′(1′H)-one], the EC50 in data set [1] (setting [12]) is 3.16 to 31.6 nM. For the same compound, the solubility at 24 h in data set [2] (setting [13]) lay in the range of 20 to 50 mg/L (≈ 47.9 to 120 µM).

Take `O=C1NCC2(CCCNC2)c2[nH]c(-c3ccnc(-c4cc5ccccc5o4)n3)cc21` (centres unmarked) [Example 5—1, 2′-(2-(benzofuran-2-yl)pyrimidin-4-yl)-5′,6′-dihydrospiro[piperidine-3,7′-pyrrolo[3,2-c]pyridin]-4′(1′H)-one]: the EC50 in data set [1] (setting [12]) was 3.16 to 31.6 nM. In addition, the solubility at 24 h in data set [2] (setting [13]) is not below 50 mg/L.

For the compound `O=C1NCC2(CCNC2)c2[nH]c(-c3ccnc(-c4cnc5ccccc5c4)n3)cc21` (centres unmarked) [Example 6—1, 2′-(2-(quinolin-3-yl)pyrimidin-4-yl)-5′,6′-dihydrospiro[pyrrolidine-3,7′-pyrrolo[3,2-c]pyridin]-4′(1′H)-one], in data set [1] (setting [12]), the EC50 is not above 3.16 nM. For the same compound, in data set [2] (setting [13]), the solubility at 24 h lay in the range of 20 to 50 mg/L (≈ 50.4 to 126 µM).

Consider `O=C1NCC2(CCNCC2)c2[nH]c(-c3ccnc(-c4cc5ccccc5o4)c3)cc21` [Example 8—1, 2′-(2-(benzofuran-2-yl)pyridin-4-yl)-5′,6′-dihydrospiro[piperidine-4,7′-pyrrolo[3,2-c]pyridin]-4′(1′H)-one], for which the EC50 in data set [1] (setting [12]) is 3.16 to 31.6 nM. Moreover, in data set [2] (setting [13]), the solubility at 24 h was not below 50 mg/L.

Take `O=C1NCC2(CCNCC2)c2[nH]c(-c3ccnc(-c4nc5ccccc5s4)c3)cc21` [Example 9—1, 2′-(2-(benzo[d]thiazol-2-yl)pyridin-4-yl)-5′,6′-dihydrospiro[piperidine-4,7′-pyrrolo[3,2-c]pyridin]-4′(1′H)-one]: the EC50 in data set [1] (setting [12]) was 3.16 to 31.6 nM. Moreover, the solubility at 24 h in data set [2] (setting [13]) is not below 50 mg/L.

For `O=C(Nc1cc(-c2cc3c([nH]2)C2(CCNCC2)CNC3=O)ccn1)c1ccc(C(F)(F)F)cc1` [Example 12—1, N-(4-(4′-oxo-1′,4′,5′,6′-tetrahydrospiro[piperidine-4,7′-pyrrolo[3,2-c]pyridine]-2′-yl)pyridin-2-yl)-4-(trifluoromethyl)benzamide], in data set [1] (setting [12]), the EC50 was not above 3.16 nM. Further, the solubility at 24 h in data set [2] (setting [13]) is 20 to 50 mg/L (≈ 42.6 to 107 µM).

As for `O=C(Nc1nccc(-c2cc3c([nH]2)C2(CCCNC2)CNC3=O)n1)c1ccc(C(F)(F)F)cc1` (centres unmarked) [Example 13—1, N-(4-(4′-oxo-1′,4′,5′,6′-tetrahydrospiro[piperidine-3,7′-pyrrolo[3,2-c]pyridine]-2′-yl)pyrimidin-2-yl)-4-(trifluoromethyl)benzamide], the EC50 in data set [1] (setting [12]) is 31.6 to 316 nM. In addition, in data set [2] (setting [13]), the solubility at 24 h lay within 20 to 50 mg/L (≈ 42.5 to 106 µM).

For the origin of these results see patent publication US8772286B2, “MK2 inhibitors” (Merck Sharp & Dohme B.V., priority 2009, dated 2014).
